Source: patent US20160250354A1, “METHODS AND COMPOSITIONS FOR DELIVERY OF ACTIVE AGENTS” (TEKMIRA PHARMACEUTICALS CORPORATION, priority 2010, published 2016)

Tested on: Factor VII
Assay: in vivo rodent Factor VII silencing model (serum/plasma FVII after i.v. FVII siRNA lipid formulation)
Parameters: species or system C57BL/6 mice
Method: C57BL/6 mice (Charles River Labs, MA) receive either saline or siRNA in desired formulations via tail vein injection at a volume of 0.01 mL/g. At various time points post-administration, animals are anesthetized by isofluorane inhalation and blood is collected into serum separator tubes by retro orbital bleed. Serum levels of Factor VII protein are determined in samples using a chromogenic assay (Coaset Factor VII, DiaPharma Group, OH or Biophen FVII, Aniara Corporation, OH) according to manufacturer protocols. A standard curve is generated using serum collected from saline treated animals. In experiments where liver mRNA levels were assessed, at various time points post-administration, animals are sacrificed and livers are harvested and snap frozen in liquid nitrogen. Frozen liver tissue is ground into powder. Tissue lysates were prepared and liver mRNA levels of Factor VII and apoB are determined using a branched DNA assay (QuantiGene Assay, Panomics, CA).
Factor VII (FVII), a prominent protein in the coagulation cascade, is synthesized in the liver (hepatocytes) and secreted into the plasma. FVII levels in plasma can be determined by a simple, plate-based colorimetric assay. As such, FVII represents a convenient model for determining sirna-mediated downregulation of hepatocyte-derived proteins, as well as monitoring plasma concentrations and tissue distribution of the nucleic acid lipid particles and siRNA.
The cationic lipids shown above are used to formulate liposomes containing the AD-1661duplex using an in-line mixing method, as described in U.S. provisional patent application 61/228,373, which is incorporated by reference in its entirety. Lipid particles are formulated using the following molar ratio: 50% Cationic lipid/10% distearoylphosphatidylcholine (DSPC)/38.5% Cholesterol/1.5% PEG-DMG (1-(monomethoxy-polyethyleneglycol)-2,3-dimyristoylglycerol, with an average PEG molecular weight of 2000).
C57BL/6 mice (Charles River Labs, MA) receive either saline or formulated siRNA via tail vein injection. At various time points after administration, serum samples are collected by retroorbital bleed. Serum levels of Factor VII protein are determined in samples using a chromogenic assay (Biophen FVII, Aniara Corporation, OH). To determine liver mRNA levels of Factor VII, animals are sacrificed and livers were harvested and snap frozen in liquid nitrogen. Tissue lysates are prepared from the frozen tissues and liver mRNA levels of Factor VII are quantified using a branched DNA assay (QuantiGene Assay, Panomics, CA).
FVII activity is evaluated in FVII siRNA-treated animals at 48 hours after intravenous (bolus) injection in C57BL/6 mice. FVII is measured using a commercially available kit for determining protein levels in serum or tissue, following the manufacturer's instructions at a microplate scale. FVII reduction is determined against untreated control mice, and the results are expressed as % Residual FVII. Two dose levels (0.05 and 0.005 mg/kg FVII siRNA) are used in the screen of each novel liposome composition.
Cationic lipid containing particles are made using the preformed vesicle method. Cationic lipid, DSPC, cholesterol and PEG-lipid were solubilized in ethanol at a molar ratio of 40/10/40/10, respectively. The lipid mixture is added to an aqueous buffer (50 mM citrate, pH 4) with mixing to a final ethanol and lipid concentration of 30% (vol/vol) and 6.1 mg/mL respectively and allowed to equilibrate at room temperature for 2 min before extrusion. The hydrated lipids are extruded through two stacked 80 nm pore-sized filters (Nuclepore) at 22° C. using a Lipex Extruder (Northern Lipids, Vancouver, BC) until a vesicle diameter of 70-90 nm, as determined by Nicomp analysis, is obtained. This generally required 1-3 passes.
The FVII siRNA (solubilised in a 50 mM citrate, pH 4 aqueous solution containing 30% ethanol) is added to the vesicles, pre-equilibrated to 35° C., at a rate of ˜5 mL/min with mixing. […]

[1] = Table 10, dose resulting in a 50% reduction in plasma FVII levels vs control animals, lipid formulation with FVII siRNA, i.v. tail vein, C57Bl/6 mice

SMILES | ED50 [1] | ED50 (in-line mixing formulation compound 1/DSPC/Chol/(C14)PEG-DMG 50/10/38.5/1.5, FIG. 1) | ED50 (pre-formed vesicle (PFV) formulation compound 1/DSPC/Chol/(C14)PEG-DMG 40/10/40/10, FIG. 2)
CCCCCC1CC1CC1CC1CCCCCCCCC(CCCCCCCCC1CC1CC1CC1CCCCC)OC(=O)CCCN(C)C (stereo not drawn) [Compound 1, 1,17-bis(2-((2-pentylcyclopropyl)methyl)cyclopropyl)heptadecan-9-yl 4-(dimethylamino)butanoate] | 0.12 mg/kg | 0.01 mg/kg | 0.12 mg/kg
CCCCC/C=C\C/C=C\CCCCCCCCC(CCCCCCCC/C=C\C/C=C\CCCCC)SSCCCCN(C)C [Compound 2] | 0.11 mg/kg | – | –
CCCCC/C=C\C/C=C\CCCCCCCCC(CCCCCCCC/C=C\C/C=C\CCCCC)ON=CCCCN(C)C [Compound 3] | 0.06 mg/kg | – | –
CCCCC/C=C\C/C=C\CCCCCCC[C@H]1OC2(CCN(C)CC2)O[C@@H]1CCCCCCC/C=C\C/C=C\CCCCC [Compound 4] | 0.07 mg/kg | – | –
